Assay results published in patent US8952024B2, “Herbicidal pyrimidone derivatives” (E I du Pont de Nemours and Company, priority 2009, dated 2015).

Columns and labels:
Experiment in all cases: Test C plant response
Type in all cases: in vivo
Conditions in all cases: Postemergence, scale 0 to 100
[1] = system: bluegrass (annual bluegrass, Poa annua)
Method in brief: (§1)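 Test chemicals were applied in a non-phytotoxic solvent mixture containing a surfactant. After 14 days in a controlled growth environment, injury was rated visually against untreated controls on a 0–100 scale (0 no effect, 100 complete control).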

[2] = system: field poppy (Papaver rhoeas)
Method in brief: as §1

[3] = system: oilseed rape (Brassica napus)
Method in brief: as §1

[4] = system: canarygrass (Phalaris minor)
Method in brief: as §1

[5] = system: green foxtail (Setaria viridis)
Method in brief: as §1

[6] = system: winter barley (Hordeum vulgare)
Method in brief: as §1

kochia (Kochia scoparia) = system: kochia (Kochia scoparia)
Method in brief: as §1

[7] = system: winter wheat (Triticum aestivum)
Method in brief: as §1

[8] = system: wild mustard (Sinapis arvensis)
Method in brief: as §1

[9] = system: spring wheat (Triticum aestivum)
Method in brief: as §1

[10] = system: chickweed (common chickweed, Stellaria media)
Method in brief: as §1

[11] = system: galium (catchweed bedstraw, Galium aparine)
Method in brief: as §1

[12] = system: blackgrass (Alopecurus myosuroides)
Method in brief: as §1

[13] = system: lambsquarters (Chenopodium album)
Method in brief: as §1

[14] = system: deadnettle (henbit deadnettle, Lamium amplexicaule)
Method in brief: as §1

[15] = system: spring barley (Hordeum vulgare)
Method in brief: as §1

wild oat (Avena fatua) = system: wild oat (Avena fatua)
Method in brief: as §1

[16] = system: Russian thistle (Salsola iberica)
Method in brief: as §1

[17] = system: buckwheat (wild buckwheat, Polygonum convolvulus)
Method in brief: as §1

[18] = system: bromegrass (downy bromegrass, Bromus tectorum)
Method in brief: as §1

[19] = system: Italian ryegrass (Lolium multiflorum)
Method in brief: as §1

[20] = system: windgrass (Apera spica-venti)
Method in brief: as §1

3-cyclohexyl-5-[(2-hydroxy-6-oxo-1-cyclohexen-1-yl)carbonyl]-2-phenyl-4(3H)-pyrimidinone [Compound 128]
25: Plant response rating: Oat, Wild (wild oat (Avena fatua); 31 g ai/ha)
85: Plant response rating: Windgrass ([20]; 62 g ai/ha)
90: Plant response rating: Oilseed Rape ([3]; 16 g ai/ha) | Plant response rating: Kochia (kochia (Kochia scoparia); 31 g ai/ha)
35: Plant response rating: Bluegrass ([1]; 31 g ai/ha) | Plant response rating: Wheat, Winter ([7]; 125 g ai/ha) | Plant response rating: Wheat, Spring ([9]; 62 g ai/ha) | Plant response rating: Blackgrass ([12]; 62 g ai/ha) | Plant response rating: Blackgrass ([12]; 125 g ai/ha)
10: Plant response rating: Canarygrass ([4]; 62 g ai/ha) | Plant response rating: Canarygrass ([4]; 125 g ai/ha)
0: Plant response rating: Barley, Winter ([6]; 16 g ai/ha) | Plant response rating: Wheat, Winter ([7]; 16 g ai/ha) | Plant response rating: Barley, Spring ([15]; 16 g ai/ha) | Plant response rating: Ryegrass, Italian ([19]; 16 g ai/ha)
15: Plant response rating: Barley, Spring ([15]; 31 g ai/ha)
95: Plant response rating: Oilseed Rape ([3]; 31 g ai/ha) | Plant response rating: Foxtail, Green ([5]; 31 g ai/ha) | Plant response rating: Foxtail, Green ([5]; 16 g ai/ha) | Plant response rating: Foxtail, Green ([5]; 62 g ai/ha) | Plant response rating: Foxtail, Green ([5]; 125 g ai/ha) | Plant response rating: Kochia (kochia (Kochia scoparia); 62 g ai/ha) | Plant response rating: Chickweed ([10]; 31 g ai/ha) | Plant response rating: Chickweed ([10]; 16 g ai/ha) | Plant response rating: Deadnettle ([14]; 16 g ai/ha) | Plant response rating: Russian Thistle ([16]; 62 g ai/ha) | Plant response rating: Russian Thistle ([16]; 125 g ai/ha) | Plant response rating: Windgrass ([20]; 125 g ai/ha)
40: Plant response rating: Field Poppy ([2]; 62 g ai/ha) | Plant response rating: Barley, Winter ([6]; 62 g ai/ha) | Plant response rating: Wheat, Spring ([9]; 125 g ai/ha)
60: Plant response rating: Barley, Winter ([6]; 125 g ai/ha) | Plant response rating: Windgrass ([20]; 16 g ai/ha)
80: Plant response rating: Bluegrass ([1]; 125 g ai/ha) | Plant response rating: Russian Thistle ([16]; 31 g ai/ha) | Plant response rating: Russian Thistle ([16]; 16 g ai/ha) | Plant response rating: Buckwheat, Wild ([17]; 62 g ai/ha) | Plant response rating: Buckwheat, Wild ([17]; 125 g ai/ha)
50: Plant response rating: Oat, Wild (wild oat (Avena fatua); 62 g ai/ha) | Plant response rating: Bromegrass, Downy ([18]; 31 g ai/ha)
70: Plant response rating: Field Poppy ([2]; 125 g ai/ha) | Plant response rating: Kochia (kochia (Kochia scoparia); 16 g ai/ha) | Plant response rating: Oat, Wild (wild oat (Avena fatua); 125 g ai/ha) | Plant response rating: Buckwheat, Wild ([17]; 31 g ai/ha) | Plant response rating: Windgrass ([20]; 31 g ai/ha)
30: Plant response rating: Field Poppy ([2]; 31 g ai/ha) | Plant response rating: Wheat, Winter ([7]; 31 g ai/ha) | Plant response rating: Wheat, Winter ([7]; 62 g ai/ha) | Plant response rating: Galium ([11]; 31 g ai/ha) | Plant response rating: Barley, Spring ([15]; 125 g ai/ha) | Plant response rating: Bromegrass, Downy ([18]; 16 g ai/ha) | Plant response rating: Ryegrass, Italian ([19]; 62 g ai/ha) | Plant response rating: Ryegrass, Italian ([19]; 125 g ai/ha)
100: Plant response rating: Oilseed Rape ([3]; 125 g ai/ha) | Plant response rating: Mustard, Wild ([8]; 125 g ai/ha) | Plant response rating: Chickweed ([10]; 125 g ai/ha) | Plant response rating: Lambsquarters ([13]; 125 g ai/ha) | Plant response rating: Deadnettle ([14]; 62 g ai/ha) | Plant response rating: Deadnettle ([14]; 125 g ai/ha)
20: Plant response rating: Field Poppy ([2]; 16 g ai/ha) | Plant response rating: Barley, Winter ([6]; 31 g ai/ha) | Plant response rating: Wheat, Spring ([9]; 31 g ai/ha) | Plant response rating: Galium ([11]; 16 g ai/ha) | Plant response rating: Blackgrass ([12]; 31 g ai/ha) | Plant response rating: Blackgrass ([12]; 16 g ai/ha) | Plant response rating: Barley, Spring ([15]; 62 g ai/ha)
65: Plant response rating: Bluegrass ([1]; 62 g ai/ha) | Plant response rating: Galium ([11]; 62 g ai/ha) | Plant response rating: Galium ([11]; 125 g ai/ha) | Plant response rating: Buckwheat, Wild ([17]; 16 g ai/ha) | Plant response rating: Bromegrass, Downy ([18]; 62 g ai/ha) | Plant response rating: Bromegrass, Downy ([18]; 125 g ai/ha)
98: Plant response rating: Oilseed Rape ([3]; 62 g ai/ha) | Plant response rating: Kochia (kochia (Kochia scoparia); 125 g ai/ha) | Plant response rating: Mustard, Wild ([8]; 31 g ai/ha) | Plant response rating: Mustard, Wild ([8]; 16 g ai/ha) | Plant response rating: Mustard, Wild ([8]; 62 g ai/ha) | Plant response rating: Chickweed ([10]; 62 g ai/ha) | Plant response rating: Lambsquarters ([13]; 31 g ai/ha) | Plant response rating: Lambsquarters ([13]; 16 g ai/ha) | Plant response rating: Lambsquarters ([13]; 62 g ai/ha) | Plant response rating: Deadnettle ([14]; 31 g ai/ha)
5: Plant response rating: Canarygrass ([4]; 31 g ai/ha) | Plant response rating: Canarygrass ([4]; 16 g ai/ha) | Plant response rating: Wheat, Spring ([9]; 16 g ai/ha) | Plant response rating: Ryegrass, Italian ([19]; 31 g ai/ha)

COc1ccc(-n2c(-c3ccccc3)ncc(C(=O)C3=C(O)CCCC3=O)c2=O)cc1 [Compound 4, 5-[(2-hydroxy-6-oxo-cyclohexen-1-yl)carbonyl]-3-(4-methoxyphenyl)-2-phenyl-4(3H)-pyrimidinone]
15: Plant response rating: Wheat, Spring ([9]; 31 g ai/ha) | Plant response rating: Barley, Spring ([15]; 125 g ai/ha) | Plant response rating: Ryegrass, Italian ([19]; 125 g ai/ha)
40: Plant response rating: Blackgrass ([12]; 125 g ai/ha) | Plant response rating: Bromegrass, Downy ([18]; 125 g ai/ha)
70: Plant response rating: Foxtail, Green ([5]; 31 g ai/ha) | Plant response rating: Russian Thistle ([16]; 31 g ai/ha)
65: Plant response rating: Galium ([11]; 31 g ai/ha)
100: Plant response rating: Oilseed Rape ([3]; 125 g ai/ha) | Plant response rating: Mustard, Wild ([8]; 125 g ai/ha) | Plant response rating: Chickweed ([10]; 125 g ai/ha) | Plant response rating: Lambsquarters ([13]; 31 g ai/ha) | Plant response rating: Lambsquarters ([13]; 125 g ai/ha) | Plant response rating: Deadnettle ([14]; 125 g ai/ha) | Plant response rating: Buckwheat, Wild ([17]; 125 g ai/ha)
5: Plant response rating: Barley, Winter ([6]; 31 g ai/ha)
90: Plant response rating: Oilseed Rape ([3]; 31 g ai/ha) | Plant response rating: Canarygrass ([4]; 125 g ai/ha) | Plant response rating: Kochia (kochia (Kochia scoparia); 31 g ai/ha) | Plant response rating: Galium ([11]; 125 g ai/ha)
30: Plant response rating: Field Poppy ([2]; 31 g ai/ha)
20: Plant response rating: Wheat, Winter ([7]; 125 g ai/ha) | Plant response rating: Wheat, Spring ([9]; 125 g ai/ha) | Plant response rating: Blackgrass ([12]; 31 g ai/ha) | Plant response rating: Oat, Wild (wild oat (Avena fatua); 31 g ai/ha)
0: Plant response rating: Canarygrass ([4]; 31 g ai/ha) | Plant response rating: Wheat, Winter ([7]; 31 g ai/ha)
98: Plant response rating: Mustard, Wild ([8]; 31 g ai/ha) | Plant response rating: Chickweed ([10]; 31 g ai/ha) | Plant response rating: Deadnettle ([14]; 31 g ai/ha)
50: Plant response rating: Bluegrass ([1]; 125 g ai/ha) | Plant response rating: Field Poppy ([2]; 125 g ai/ha) | Plant response rating: Oat, Wild (wild oat (Avena fatua); 125 g ai/ha)
10: Plant response rating: Barley, Spring ([15]; 31 g ai/ha) | Plant response rating: Ryegrass, Italian ([19]; 31 g ai/ha)
35: Plant response rating: Bluegrass ([1]; 31 g ai/ha) | Plant response rating: Barley, Winter ([6]; 125 g ai/ha) | Plant response rating: Bromegrass, Downy ([18]; 31 g ai/ha) | Plant response rating: Windgrass ([20]; 31 g ai/ha)
95: Plant response rating: Foxtail, Green ([5]; 125 g ai/ha) | Plant response rating: Kochia (kochia (Kochia scoparia); 125 g ai/ha) | Plant response rating: Russian Thistle ([16]; 125 g ai/ha) | Plant response rating: Buckwheat, Wild ([17]; 31 g ai/ha) | Plant response rating: Windgrass ([20]; 125 g ai/ha)
